Test results as given in paper PMC4237514, “Novel amino-β-lactam derivatives as potent cholesterol absorption inhibitors” (European Journal of Medicinal Chemistry, 2014).

Target: T1, human NPC1L1 (Homo sapiens, UniProt Q9UHC9)
T1 construct: expressed in transfected cells
T1 sequence (Q9UHC9 22-1359): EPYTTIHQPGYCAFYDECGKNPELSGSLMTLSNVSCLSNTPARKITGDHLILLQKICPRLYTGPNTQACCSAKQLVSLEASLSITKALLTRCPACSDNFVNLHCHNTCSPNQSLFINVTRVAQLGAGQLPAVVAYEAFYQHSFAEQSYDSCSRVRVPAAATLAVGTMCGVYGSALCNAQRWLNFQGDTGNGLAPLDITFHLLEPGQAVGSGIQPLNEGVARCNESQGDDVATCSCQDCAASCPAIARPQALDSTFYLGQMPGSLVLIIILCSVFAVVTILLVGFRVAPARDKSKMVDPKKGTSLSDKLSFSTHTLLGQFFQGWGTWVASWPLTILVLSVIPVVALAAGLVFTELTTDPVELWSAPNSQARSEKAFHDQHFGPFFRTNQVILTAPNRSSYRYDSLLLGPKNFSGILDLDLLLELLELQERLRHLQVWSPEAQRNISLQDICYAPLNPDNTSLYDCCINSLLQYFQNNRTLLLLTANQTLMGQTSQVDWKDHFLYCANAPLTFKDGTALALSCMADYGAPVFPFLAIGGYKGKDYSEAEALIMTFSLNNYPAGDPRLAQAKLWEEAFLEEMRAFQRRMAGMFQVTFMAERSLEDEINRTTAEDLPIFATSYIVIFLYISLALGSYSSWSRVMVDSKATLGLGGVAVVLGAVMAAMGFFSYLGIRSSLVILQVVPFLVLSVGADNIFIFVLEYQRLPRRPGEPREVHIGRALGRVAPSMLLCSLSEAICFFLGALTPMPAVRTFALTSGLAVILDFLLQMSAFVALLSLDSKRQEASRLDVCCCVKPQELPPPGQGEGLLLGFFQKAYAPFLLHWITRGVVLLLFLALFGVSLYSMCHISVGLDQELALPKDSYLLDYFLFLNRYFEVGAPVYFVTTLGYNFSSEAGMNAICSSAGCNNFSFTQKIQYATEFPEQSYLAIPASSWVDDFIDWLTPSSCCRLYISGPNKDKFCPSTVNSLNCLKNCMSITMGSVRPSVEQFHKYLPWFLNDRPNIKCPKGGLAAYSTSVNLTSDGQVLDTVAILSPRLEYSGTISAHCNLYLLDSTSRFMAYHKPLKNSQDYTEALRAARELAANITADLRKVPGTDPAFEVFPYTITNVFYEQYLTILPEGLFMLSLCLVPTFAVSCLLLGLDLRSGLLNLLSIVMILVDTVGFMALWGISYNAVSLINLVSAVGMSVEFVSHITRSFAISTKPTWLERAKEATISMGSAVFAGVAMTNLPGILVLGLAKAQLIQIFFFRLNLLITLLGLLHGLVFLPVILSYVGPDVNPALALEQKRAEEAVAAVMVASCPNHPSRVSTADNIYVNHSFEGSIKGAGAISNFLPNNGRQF
Test: In vitro [3H]cholesterol uptake assay in hNPC1L1/MDCKII cells
Type: cell-based
Details: 1 h, read-out: IC50, cholesterol uptake inhibition
Description: Medium A contained DMEM plus 100 units/mL penicillin and 100 μg/mL streptomycin supplemented with 5% lipoprotein-deficient serum (density > 1.21 g/mL, prepared from FCS by ultracentrifugation). Cholesterol Replenishing Medium (Medium B) was prepared according to the modified method reported by Field et al.. In brief, 0.25 mM oleic acid, 50 μM free cholesterol, 10 μM compactin, 50 μM mevalonate, 5 mM Na-taurocholate (Sigma–Aldrich, Germany), and [^3H]cholesterol (0.18 μCi/mL medium, [1,2–3H(N)] cholesterol, 1 mCi/mL (ARC Inc., USA)) in Medium A were mixed and sonicated. Following the micellar formation, compounds 1, 5, 6, 5/6 (70:30), and 6/5 (85:15) (73 mM stock solution in DMSO) were added to Medium B and vortexed to obtain the final concentrations (10, 30, 60, 90, 120, 150, 200 μM).
MDCKII wildtype and hNPC1L1/MDCKII cells were seeded in 24-well plates at a density of 5 × 10^5 cells/mL medium (500 μL medium/well) in Medium A 24 h before the treatment. Cells were washed once with PBS and incubated in Medium B (500 μL medium/well) containing micelles and tested compounds in indicated concentrations for 1 h. Following the incubation, the medium was removed and cells were washed three times with ice-cold 0.2% free fatty acid-free BSA. Cells were lysed and radioactivity in the lysate (100 μL) was determined by liquid scintillation counting. Protein concentrations of the lysates were determined with the DC Protein Assay (Bio-Rad, USA). The results were calculated as cpm/mg protein and expressed as percentage of inhibition compared to untreated cells. Each concentration was tested in duplicate in three independent experiments.

SMILES: O=C1[C@H](NCC(O)c2ccc(F)cc2)[C@@H](c2ccc(O)cc2)N1c1ccc(F)cc1 (stereo partly drawn) [6/5 (85:15), (3R,4R)-3-[(2S/R)-2-(4-fluorophenyl)-2-hydroxyethylamino]-1-(4-fluorophenyl)-4-(4-hydroxyphenyl)azetidin-2-one]
- IC50: 71 µM
